Source: patent publication US8501936B2 (priority 2009, dated 2013)

Assays:
human FAK = human FAK (Homo sapiens (Human), UniProt Q05397); settings: read-out: FAK IC50
human JAK2 = human JAK2 (Homo sapiens (Human), UniProt O60674); settings: read-out: JAK2 IC50
Chain of human JAK2 (O60674 815-1132): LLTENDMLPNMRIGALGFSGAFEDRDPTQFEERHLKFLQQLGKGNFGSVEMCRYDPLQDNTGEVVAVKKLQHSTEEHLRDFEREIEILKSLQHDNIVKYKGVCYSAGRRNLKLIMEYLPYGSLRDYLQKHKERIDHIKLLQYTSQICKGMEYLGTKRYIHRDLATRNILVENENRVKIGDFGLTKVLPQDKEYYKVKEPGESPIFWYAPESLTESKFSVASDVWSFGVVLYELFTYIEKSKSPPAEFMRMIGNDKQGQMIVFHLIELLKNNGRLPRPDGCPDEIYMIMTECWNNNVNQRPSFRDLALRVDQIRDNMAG

Chain of human FAK (Q05397 whole entry): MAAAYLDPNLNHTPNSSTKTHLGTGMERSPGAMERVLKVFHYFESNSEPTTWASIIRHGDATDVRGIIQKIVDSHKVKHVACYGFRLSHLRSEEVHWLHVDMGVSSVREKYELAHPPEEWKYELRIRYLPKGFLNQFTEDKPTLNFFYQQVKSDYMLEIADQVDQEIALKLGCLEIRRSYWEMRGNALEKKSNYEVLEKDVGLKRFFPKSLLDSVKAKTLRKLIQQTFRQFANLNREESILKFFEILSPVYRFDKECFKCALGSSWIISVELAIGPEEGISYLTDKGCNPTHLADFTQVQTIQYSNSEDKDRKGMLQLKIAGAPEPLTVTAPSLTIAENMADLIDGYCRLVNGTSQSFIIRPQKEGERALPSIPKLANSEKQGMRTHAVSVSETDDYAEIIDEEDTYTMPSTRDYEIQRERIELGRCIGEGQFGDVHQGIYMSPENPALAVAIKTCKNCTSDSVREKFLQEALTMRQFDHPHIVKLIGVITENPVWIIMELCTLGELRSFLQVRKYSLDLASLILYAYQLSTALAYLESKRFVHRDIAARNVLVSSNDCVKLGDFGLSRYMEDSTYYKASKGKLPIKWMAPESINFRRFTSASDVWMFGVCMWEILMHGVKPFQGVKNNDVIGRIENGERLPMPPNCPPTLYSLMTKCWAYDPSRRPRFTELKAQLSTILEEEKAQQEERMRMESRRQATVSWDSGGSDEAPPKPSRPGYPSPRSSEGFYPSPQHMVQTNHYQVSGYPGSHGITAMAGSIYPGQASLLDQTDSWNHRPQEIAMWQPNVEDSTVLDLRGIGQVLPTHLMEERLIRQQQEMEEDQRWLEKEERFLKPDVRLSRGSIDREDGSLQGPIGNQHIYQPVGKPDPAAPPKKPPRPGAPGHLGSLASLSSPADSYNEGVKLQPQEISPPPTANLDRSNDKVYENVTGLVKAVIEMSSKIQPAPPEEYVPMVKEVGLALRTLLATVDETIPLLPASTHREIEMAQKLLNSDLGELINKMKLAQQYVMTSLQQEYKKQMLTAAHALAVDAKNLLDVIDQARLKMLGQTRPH

Row | Structure (SMILES) | IC50 (human FAK) | IC50 (human JAK2)
1 | CN1CCN(c2cccc(Nc3nc4cncc(-c5ccc(S(C)(=O)=O)cc5)n4n3)c2)CC1 [Example 107, [5-(4-Methanesulfonyl-phenyl)-[1,2,4]triazolo[1,5-a]pyrazin-2-yl]-[3-(4-methyl-piperazin-1-yl)-phenyl]-amine] | 855 nM | 307 nM
2 | CN1CCN(c2cccc(Nc3nc4c(Nc5cccc(S(C)(=O)=O)c5)cccn4n3)c2)CC1 [Example 110, N(8)-(3-Methanesulfonyl-phenyl)-N(2)-[3-(4-methyl-piperazin-1-yl)-phenyl]-[1,2,4]triazolo[1,5-a]pyridine-2,8-diamine] | 3000 nM | 1310 nM
3 | CN1CCN(c2cccc(Nc3nc4c(Nc5cccnc5N(C)S(C)(=O)=O)cccn4n3)c2)CC1 [Example 111, N-Methyl-N-(3-{2-[3-(4-methyl-piperazin-1-yl)-phenylamino]-[1,2,4]triazolo[1,5-a]pyridin-8-ylamino}-pyridin-2-yl)-methanesulfonamide] | 2000 nM | 60.3 nM
4 | CS(=O)(=O)c1ccc(Nc2nc3c(-c4ccc(S(C)(=O)=O)cc4)cccn3n2)cc1 [Example 112, (4-Methanesulfonyl-phenyl)-[8-(4-methanesulfonyl-phenyl)-[1,2,4]triazolo[1,5-a]pyridin-2-yl]-amine] | 531 nM | 1.3 nM
5 | CS(=O)(=O)c1ccc(-c2cccn3nc(Nc4cccc(S(C)(=O)=O)c4)nc23)cc1 [Example 113, (3-Methanesulfonyl-phenyl)-[8-(4-methanesulfonyl-phenyl)-[1,2,4]triazolo[1,5-a]pyridin-2-yl]-amine] | 693 nM | 5.57 nM
6 | CS(=O)(=O)c1ccc(-c2cccn3nc(Nc4ccc(CN5CCS(=O)(=O)CC5)cc4)nc23)cc1 [Example 114, N-{4-[(1,1-dioxidothiomorpholin-4-yl)methyl]phenyl}-8-[4-(methylsulfonyl)phenyl][1,2,4]triazolo[1,5-a]pyridin-2-amine] | 1480 nM | 0.75 nM
7 | CS(=O)(=O)c1ccc(-c2cccc3nc(Nc4ccc(CN5CCS(=O)(=O)CC5)cc4)nn23)cc1 [Example 115, N-{4-[(1,1-dioxidothiomorpholin-4-yl)methyl]phenyl}-5-[4-(methylsulfonyl)phenyl][1,2,4]triazolo[1,5-a]pyridin-2-amine] | 1050 nM | 0.66 nM
8 | CN1CCN(Cc2cccc(Nc3nc4c(-c5ccc(S(C)(=O)=O)cc5)cccn4n3)c2)CC1 [Example 116, [8-(4-Methanesulfonyl-phenyl)-[1,2,4]triazolo[1,5-a]pyridin-2-yl]-[3-(4-methyl-piperazin-1-ylmethyl)-phenyl]-amine] | 3000 nM | 3.07 nM
9 | CS(=O)(=O)c1ccc(-c2cccc3nc(Nc4cccc(CN5CCOCC5)c4)nn23)cc1 [Example 117, [5-(4-Methanesulfonyl-phenyl)-[1,2,4]triazolo[1,5-a]pyridin-2-yl]-(3-morpholin-4-ylmethyl-phenyl)-amine] | 1470 nM | 0.95 nM
10 | CN1CCN(Cc2cccc(Nc3nc4cccc(-c5ccc(S(C)(=O)=O)cc5)n4n3)c2)CC1 [Example 118, [5-(4-Methanesulfonyl-phenyl)-[1,2,4]triazolo[1,5-a]pyridin-2-yl]-[3-(4-methyl-piperazin-1-ylmethyl)-phenyl]-amine] | 2860 nM | 1.43 nM
11 | CN(c1ccc(-c2cccn3nc(Nc4ccc(CN5CCS(=O)(=O)CC5)cc4)nc23)cc1)S(C)(=O)=O [Example 119, N-{4-[2-({4-[(1,1-dioxidothiomorpholin-4-yl)methyl]phenyl}amino)[1,2,4]triazolo[1,5-a]pyridin-8-yl]phenyl}-N-methylmethanesulfonamide] | 10000 nM | 0.27 nM
12 | CS(=O)(=O)c1ccc(-c2cccn3nc(Nc4cccc(CN5CCS(=O)(=O)CC5)c4)nc23)cc1 [Example 120, N-{3-[(1,1-dioxidothiomorpholin-4-yl)methyl]phenyl}-8-[4-(methylsulfonyl)phenyl][1,2,4]triazolo[1,5-a]pyridin-2-amine] | 2000 nM | 0.67 nM
13 | CS(=O)(=O)c1ccc(-c2cccc3nc(Nc4cccc(CN5CCS(=O)(=O)CC5)c4)nn23)cc1 [Example 121, N-{3-[(1,1-dioxidothiomorpholin-4-yl)methyl]phenyl}-5-[4-(methylsulfonyl)phenyl][1,2,4]triazolo[1,5-a]pyridin-2-amine] | 999 nM | 0.55 nM
14 | CN1CCN(c2ccc(Nc3nc4c(NCc5cccnc5N(C)S(C)(=O)=O)cccn4n3)cc2)CC1 [Example 122, N-Methyl-N-[3-({2-[4-(4-methyl-piperazin-1-yl)-phenylamino]-[1,2,4]triazolo[1,5-a]pyridin-8-ylamino}-methyl)-pyridin-2-yl]-methanesulfonamide] | 30 nM | 20.7 nM
15 | CN1CCC(c2ccc(Nc3nc4c(NCc5cccnc5N(C)S(C)(=O)=O)cccn4n3)cc2)CC1 [Example 123, N-Methyl-N-[3-({2-[4-(1-methyl-piperidin-4-yl)-phenylamino]-[1,2,4]triazolo[1,5-a]pyridin-8-ylamino}-methyl)-pyridin-2-yl]-methanesulfonamide] | 77.3 nM | 40.3 nM
16 | CN(c1ncccc1CNc1cccn2nc(Nc3ccc(OCCN4CCCC4)cc3)nc12)S(C)(=O)=O [Example 124, N-Methyl-N-[3-({2-[4-(2-pyrrolidin-1-yl-ethoxy)-phenylamino]-[1,2,4]triazolo[1,5-a]pyridin-8-ylamino}-methyl)-pyridin-2-yl]-methanesulfonamide] | 59.7 nM | 41.2 nM
17 | CN1CCC(c2ccc(Nc3nc4c(Nc5ccccc5S(C)(=O)=O)cccn4n3)cc2)CC1 [Example 125, N(8)-(2-Methanesulfonyl-phenyl)-N(2)-[4-(1-methyl-piperidin-4-yl)-phenyl]-[1,2,4]triazolo[1,5-a]pyridine-2,8-diamine] | 2050 nM | 6.6 nM
18 | CS(=O)(=O)c1ccccc1Nc1cccn2nc(Nc3ccc(OCCN4CCCC4)cc3)nc12 [Example 126, N(8)-(2-Methanesulfonyl-phenyl)-N(2)-[4-(2-pyrrolidin-1-yl-ethoxy)-phenyl]-[1,2,4]triazolo[1,5-a]pyridine-2,8-diamine] | 1300 nM | 14.3 nM
19 | CN(c1cccc(-c2cccn3nc(Nc4ccc(OCCN5CCCC5)cc4)nc23)c1)S(C)(=O)=O [Example 128, N-Methyl-N-(3-{2-[4-(2-pyrrolidin-1-yl-ethoxy)-phenylamino]-[1,2,4]triazolo[1,5-a]pyridin-8-yl}-phenyl)-methanesulfonamide] | 2310 nM | 34 nM
20 | CN1CCC(c2cccc(Nc3nc4c(-c5cccc(N(C)S(C)(=O)=O)c5)cccn4n3)c2)CC1 [Example 129, N-Methyl-N-(3-{2-[3-(1-methyl-piperidin-4-yl)-phenylamino]-[1,2,4]triazolo[1,5-a]pyridin-8-yl}-phenyl)-methanesulfonamide] | 759 nM | 8.88 nM
21 | CN1CCC(c2cccc(Nc3nc4c(-c5ccccc5N(C)S(C)(=O)=O)cccn4n3)c2)CC1 [Example 130, N-Methyl-N-(2-{2-[3-(1-methyl-piperidin-4-yl)-phenylamino]-[1,2,4]triazolo[1,5-a]pyridin-8-yl}-phenyl)-methanesulfonamide] | 3000 nM | 1200 nM
22 | CN1CCN(c2ccc(Nc3nc4c(Nc5cccnc5N(C)S(C)(=O)=O)cccn4n3)cc2)CC1 [Example 131, N-Methyl-N-(3-{2-[4-(4-methyl-piperazin-1-yl)-phenylamino]-[1,2,4]triazolo[1,5-a]pyridin-8-ylamino}-pyridin-2-yl)-methanesulfonamide] | 1370 nM | 11.4 nM
23 | CN(c1ncccc1Nc1cccn2nc(Nc3ccc(OCCN4CCCC4)cc3)nc12)S(C)(=O)=O [Example 132, N-Methyl-N-(3-{2-[4-(2-pyrrolidin-1-yl-ethoxy)-phenylamino]-[1,2,4]triazolo[1,5-a]pyridin-8-ylamino}-pyridin-2-yl)-methanesulfonamide] | 3000 nM | 33.1 nM
24 | CN1CCC(c2ccc(Nc3nc4c(Nc5cccnc5N(C)S(C)(=O)=O)cccn4n3)cc2)CC1 [Example 133, N-Methyl-N-(3-{2-[4-(1-methyl-piperidin-4-yl)-phenylamino]-[1,2,4]triazolo[1,5-a]pyridin-8-ylamino}-pyridin-2-yl)-methanesulfonamide] | 2070 nM | 17.4 nM
25 | CN(c1ncccc1CNc1cccn2nc(Nc3ccc(S(C)(=O)=O)cc3)nc12)S(C)(=O)=O [Example 134, N-(3-{[2-(4-Methanesulfonyl-phenylamino)-[1,2,4]triazolo[1,5-a]pyridin-8-ylamino]-methyl}-pyridin-2-yl)-N-methyl-methanesulfonamide] | 752 nM | 17.3 nM
26 | CN(c1ncccc1CNc1cccn2nc(Nc3cccc(S(C)(=O)=O)c3)nc12)S(C)(=O)=O [Example 135, N-(3-{[2-(3-Methanesulfonyl-phenylamino)-[1,2,4]triazolo[1,5-a]pyridin-8-ylamino]-methyl}-pyridin-2-yl)-N-methyl-methanesulfonamide] | 215 nM | 77.8 nM
27 | CN1CCN(c2cccc(Nc3nc4c(NCc5cccnc5N(C)S(C)(=O)=O)cccn4n3)c2)CC1 [Example 136, N-Methyl-N-[3-({2-[3-(4-methyl-piperazin-1-yl)-phenylamino]-[1,2,4]triazolo[1,5-a]pyridin-8-ylamino}-methyl)-pyridin-2-yl]-methanesulfonamide] | 71.1 nM | 77.2 nM
28 | COc1cc(N2CCN(C)CC2)ccc1Nc1nc2c(NCc3cccnc3N(C)S(C)(=O)=O)cccn2n1 [Example 137, N-[3-({2-[2-Methoxy-4-(4-methyl-piperazin-1-yl)-phenylamino]-[1,2,4]triazolo[1,5-a]pyridin-8-ylamino}-methyl)-pyridin-2-yl]-N-methyl-methanesulfonamide] | 39.7 nM | 3000 nM
29 | CN1CCN(c2ccc(Nc3nc4c(NCc5ccccc5S(C)(=O)=O)cccn4n3)cc2)CC1 [Example 138, N(8)-(2-Methanesulfonyl-benzyl)-N(2)-[4-(4-methyl-piperazin-1-yl)-phenyl]-[1,2,4]triazolo[1,5-a]pyridine-2,8-diamine] | 199 nM | 13.2 nM
